What all share (assay type): functional
In assay [1] the test system is Candida albicans. Kind of assay: Synergistic antifungal activity against FLC-sensitive Candida albicans SC5314 measured after 24 hrs in presence of fluconazole by microdilution method. For orientation: In broth dilution the organism is exposed to a series of concentrations in liquid medium.
Assay [2] deals with Candida albicans. Description: Synergistic antifungal activity against FLC-sensitive Candida albicans SC5314 assessed as fractional inhibitory concentration index measured after 24 hrs in presence of fluconazole by microdilution method.
Assay [3] has as its system Candida albicans. Description: Antifungal activity against FLC-sensitive Candida albicans SC5314 measured after 24 hrs by microdilution method.
Assay [4] concerns Candida albicans. Description: Antifungal activity against Clinical FLC-resistant Candida albicans 23 measured after 24 hrs by microdilution method.
The test system of assay [5] is Candida albicans. Kind of assay: Synergistic antifungal activity against Clinical FLC-resistant Candida albicans 23 measured after 24 hrs in presence of fluconazole by microdilution method.
The test system of assay [6] is Candida albicans. Kind of assay: Synergistic antifungal activity against Clinical FLC-resistant Candida albicans 23 assessed as fractional inhibitory concentration index measured after 24 hrs in presence of fluconazole by microdilution method.

Consider `C=C(C)C(=O)N1CCN(c2ccc(C(=O)/C=C/c3cc4ccccc4nc3N3CCN(C)CC3)cc2)CC1`, for which the MIC80 (as a rule, an inhibitory concentration at the 80% level, which refers to growth in some studies and to a panel of isolates in others) in the assay on Candida albicans [1] was 3.71 µg/mL; in the assay on Candida albicans [3] it was over 40 µg/mL; in the assay with Candida albicans [4], over 40 µg/mL; with Candida albicans [5], 4.93 µg/mL. The “fractional inhibitory concentration index (FICI)” value in the assay with Candida albicans [2] was 0.69; in the assay with Candida albicans [6], 0.12.
On to `CN1CCN(c2nc3ccccc3cc2/C=C/C(=O)c2ccc(N3CCN(CC(=O)c4ccc(F)cc4)CC3)cc2)CC1`, for which the MIC80 in the assay on Candida albicans [1] is 6.74 µg/mL; with Candida albicans [3], over 40 µg/mL; against Candida albicans [4], over 40 µg/mL; in the assay with Candida albicans [5] it was over 40 µg/mL. Further, the “fractional inhibitory concentration index (FICI)” value with Candida albicans [2] was 1.25.
Take `CN1CCN(c2nc3ccccc3cc2/C=C/C(=O)c2ccc(N3CCN(C(=O)c4ccc(F)cc4)CC3)cc2)CC1`: the MIC80 in the assay with Candida albicans [1] was 0.88 µg/mL; with Candida albicans [3], over 40 µg/mL; in the assay on Candida albicans [4] it was over 40 µg/mL; in the assay with Candida albicans [5], 3.43 µg/mL. Also, the “fractional inhibitory concentration index (FICI)” value was found to be 0.16 with Candida albicans [2] and 0.09 in the assay with Candida albicans [6].
Consider `CN1CCN(c2nc3ccccc3cc2/C=C/C(=O)c2ccc(N3CCN(C(=O)/C=C/c4ccccc4)CC3)cc2)CC1`, for which the MIC80 in the assay with Candida albicans [1] is over 40 µg/mL; against Candida albicans [3] it was over 40 µg/mL; in the assay with Candida albicans [4] it was over 40 µg/mL; with Candida albicans [5] it was 5.83 µg/mL. Moreover, the “fractional inhibitory concentration index (FICI)” value with Candida albicans [6] worked out at 0.15.
Turning to `CC(=O)N1CCN(c2ccc(C(=O)/C=C/c3cc4ccccc4nc3N3CCN(C)CC3)cc2)CC1`, the MIC80 in the assay with Candida albicans [1], in the assay on Candida albicans [3], in the assay on Candida albicans [4] and with Candida albicans [5] was over 40 µg/mL throughout.
Regarding `Cc1ccc(C(=O)CN2CCN(c3ccc(C(=O)/C=C/c4cc5ccccc5nc4N4CCN(C)CC4)cc3)CC2)cc1`, the MIC80 with Candida albicans [1] was 5.68 µg/mL; in the assay with Candida albicans [3], over 40 µg/mL; against Candida albicans [4] it was over 40 µg/mL; in the assay on Candida albicans [5] it was 33.4 µg/mL. Moreover, the “fractional inhibitory concentration index (FICI)” value in the assay with Candida albicans [2] is reported as 1.05; in the assay with Candida albicans [6] it was 0.83.
On to `CN1CCN(c2nc3ccccc3cc2/C=C/C(=O)c2ccc(N3CCN(S(=O)(=O)c4ccc(C(F)(F)F)cc4)CC3)cc2)CC1`, for which the MIC80 is over 40 µg/mL in the assay with Candida albicans [1], over 40 µg/mL in the assay on Candida albicans [3], over 40 µg/mL against Candida albicans [4] and 1.15 µg/mL with Candida albicans [5]. The “fractional inhibitory concentration index (FICI)” value with Candida albicans [6] came out at 0.03.
Turning to `COC(=O)CN1CCN(c2ccc(C(=O)/C=C/c3cc4ccccc4nc3N3CCN(C)CC3)cc2)CC1`, the MIC80 was 14.1 µg/mL in the assay on Candida albicans [1], over 40 µg/mL against Candida albicans [3], over 40 µg/mL in the assay with Candida albicans [4] and over 40 µg/mL in the assay on Candida albicans [5]. For the same compound, the “fractional inhibitory concentration index (FICI)” value in the assay on Candida albicans [2] is listed as 2.6.
For the compound `CN1CCN(c2nc3ccccc3cc2/C=C/C(=O)c2ccc(N3CCN(Cc4ccc(C#N)cc4)CC3)cc2)CC1`, the MIC80 is 4.73 µg/mL in the assay with Candida albicans [1], over 40 µg/mL against Candida albicans [3], over 40 µg/mL against Candida albicans [4] and 5.4 µg/mL in the assay on Candida albicans [5]. Moreover, the entries for the “fractional inhibitory concentration index (FICI)” value with Candida albicans [2] and in the assay on Candida albicans [6] were 0.88 and 0.14, respectively.
Consider `CN1CCN(c2nc3ccccc3cc2/C=C/C(=O)c2ccc(N3CCN(Cc4ccc(F)c(F)c4)CC3)cc2)CC1`, for which the MIC80 with Candida albicans [1] was 2.06 µg/mL; against Candida albicans [3] it was over 40 µg/mL; against Candida albicans [4] it was over 40 µg/mL; in the assay on Candida albicans [5], 6.18 µg/mL. Besides, the “fractional inhibitory concentration index (FICI)” value is on record as 0.38 in the assay with Candida albicans [2] and 0.15 in the assay with Candida albicans [6].
On to `Cc1ccc(S(=O)(=O)N2CCN(c3ccc(C(=O)/C=C/c4cc5ccccc5nc4N4CCN(C)CC4)cc3)CC2)cc1`, for which the MIC80 with Candida albicans [1] was over 40 µg/mL; in the assay with Candida albicans [3] it was over 40 µg/mL; against Candida albicans [4], over 40 µg/mL; with Candida albicans [5] it was 8.08 µg/mL. In addition, the “fractional inhibitory concentration index (FICI)” value in the assay with Candida albicans [6] is reported as 0.2.
Consider `CN1CCN(c2nc3ccccc3cc2/C=C/C(=O)c2ccc(N3CCN(S(=O)(=O)c4ccc(OC(F)(F)F)cc4)CC3)cc2)CC1`, for which the MIC80 in the assay on Candida albicans [1] was 4.31 µg/mL; with Candida albicans [3], over 40 µg/mL; against Candida albicans [4] it was over 40 µg/mL; with Candida albicans [5] it was 4.05 µg/mL. Also, the “fractional inhibitory concentration index (FICI)” value stood at 0.8 in the assay with Candida albicans [2] and 0.1 in the assay on Candida albicans [6].
As to `CN1CCN(c2nc3ccccc3cc2/C=C/C(=O)c2ccc(N3CCN(S(=O)(=O)c4ccc([N+](=O)[O-])cc4)CC3)cc2)CC1`, the MIC80 in the assay on Candida albicans [1] is 17.8 µg/mL; against Candida albicans [3], over 40 µg/mL; in the assay with Candida albicans [4] it was over 40 µg/mL; with Candida albicans [5], over 40 µg/mL. The “fractional inhibitory concentration index (FICI)” value with Candida albicans [2] is recorded as 3.3.
On to `CN1CCN(c2nc3ccccc3cc2/C=C/C(=O)c2ccc(N3CCN(S(=O)(=O)C4CC4)CC3)cc2)CC1`, for which the MIC80 with Candida albicans [1] is 4.93 µg/mL; against Candida albicans [3], over 40 µg/mL; with Candida albicans [4], over 40 µg/mL; with Candida albicans [5] it was 6.03 µg/mL. Besides, the “fractional inhibitory concentration index (FICI)” value was determined as 0.91 in the assay with Candida albicans [2] and 0.15 in the assay with Candida albicans [6].
On to `CN1CCN(c2nc3ccccc3cc2/C=C/C(=O)c2ccc(N3CCN(S(C)(=O)=O)CC3)cc2)CC1`, for which the MIC80 was 28.1 µg/mL in the assay with Candida albicans [1], over 40 µg/mL in the assay with Candida albicans [3], over 40 µg/mL in the assay with Candida albicans [4] and 22.5 µg/mL in the assay with Candida albicans [5]. Moreover, the “fractional inhibitory concentration index (FICI)” value is 5.2 with Candida albicans [2] and 0.56 in the assay with Candida albicans [6].
For the compound `CN1CCN(c2nc3ccccc3cc2/C=C/C(=O)c2ccc(N3CCN(C(=O)c4ccc(Cl)cc4)CC3)cc2)CC1`, the MIC80 with Candida albicans [1] was 0.64 µg/mL; with Candida albicans [3], over 40 µg/mL; against Candida albicans [4] it was over 40 µg/mL; in the assay with Candida albicans [5], 1.49 µg/mL. The entries for the “fractional inhibitory concentration index (FICI)” value in the assay with Candida albicans [2] and in the assay on Candida albicans [6] were 0.12 and 0.04, respectively.
Consider `C=CC(=O)N1CCN(c2ccc(C(=O)/C=C/c3cc4ccccc4nc3N3CCN(C)CC3)cc2)CC1`, for which the MIC80 was 4.11 µg/mL with Candida albicans [1], over 40 µg/mL in the assay on Candida albicans [3], over 40 µg/mL in the assay on Candida albicans [4] and 26.4 µg/mL in the assay with Candida albicans [5]. In addition, the “fractional inhibitory concentration index (FICI)” value came out at 0.76 with Candida albicans [2] and 0.66 with Candida albicans [6].
For the compound `COc1ccc(C(=O)CN2CCN(c3ccc(C(=O)/C=C/c4cc5ccccc5nc4N4CCN(C)CC4)cc3)CC2)cc1OC`, the MIC80 in the assay on Candida albicans [1] was 5.5 µg/mL; in the assay on Candida albicans [3], over 40 µg/mL; against Candida albicans [4], over 40 µg/mL; in the assay on Candida albicans [5], 28.1 µg/mL. Besides, the entries for the “fractional inhibitory concentration index (FICI)” value in the assay on Candida albicans [2] and in the assay with Candida albicans [6] were 1.01 and 0.7, respectively.
As for `CN1CCN(c2nc3ccccc3cc2/C=C/C(=O)c2ccc(N3CCN(S(=O)(=O)c4ccc(F)cc4)CC3)cc2)CC1`, the MIC80 in the assay with Candida albicans [1] is 18.3 µg/mL; in the assay with Candida albicans [3], over 40 µg/mL; in the assay with Candida albicans [4], over 40 µg/mL; in the assay on Candida albicans [5], 1.14 µg/mL. Besides, the “fractional inhibitory concentration index (FICI)” value is 3.39 with Candida albicans [2] and 0.03 in the assay on Candida albicans [6].
`CN1CCN(c2nc3ccccc3cc2/C=C/C(=O)c2ccc(N3CCN(CC(=O)c4ccc(Cl)c(Cl)c4)CC3)cc2)CC1`: the MIC80 with Candida albicans [1] is 17 µg/mL; with Candida albicans [3], over 40 µg/mL; against Candida albicans [4], over 40 µg/mL; in the assay with Candida albicans [5], 36.2 µg/mL. In addition, the entries for the “fractional inhibitory concentration index (FICI)” value in the assay with Candida albicans [2] and in the assay on Candida albicans [6] were 3.14 and 0.91, respectively.
For the compound `CN1CCN(c2nc3ccccc3cc2/C=C/C(=O)c2ccc(N3CCN(S(=O)(=O)c4ccc(Cl)c(C(F)(F)F)c4)CC3)cc2)CC1`, the MIC80 with Candida albicans [1] was 5.31 µg/mL; with Candida albicans [3] it was over 40 µg/mL; in the assay with Candida albicans [4], over 40 µg/mL; in the assay on Candida albicans [5], 26.8 µg/mL. The “fractional inhibitory concentration index (FICI)” value in the assay on Candida albicans [2] was 0.98; in the assay with Candida albicans [6], 0.67.
As for `CN1CCN(c2nc3ccccc3cc2/C=C/C(=O)c2ccc(N3CCNCC3)cc2)CC1`, the MIC80 in the assay with Candida albicans [1] was 2.56 µg/mL; with Candida albicans [3], over 40 µg/mL; in the assay on Candida albicans [4], over 40 µg/mL; in the assay with Candida albicans [5], 24 µg/mL. Also, the “fractional inhibitory concentration index (FICI)” value with Candida albicans [2] is recorded as 0.47; in the assay on Candida albicans [6], 0.6.
Consider `CN1CCN(c2nc3ccccc3cc2/C=C/C(=O)c2ccc(N3CCN(C(=O)CCCl)CC3)cc2)CC1`, for which the MIC80 in the assay on Candida albicans [1], in the assay on Candida albicans [3], in the assay with Candida albicans [4] and in the assay on Candida albicans [5] was over 40 µg/mL in each case.
